According to article PMC5342262, “Synthesis, in vitro and in vivo evaluation of 3β-[^18F]fluorocholic acid for the detection of drug-induced cholestasis in mice” (PLoS ONE, 2017):

What was measured:
[1] = tested on: hepatobiliary transport of [^18F]FCA; assay: Dynamic PET of [^18F]FCA in control, rifampicin and bosentan treated FVB-mice; settings: pretreated FVB-mice; dynamic μPET
Experimental: Hepatobiliary transport of the tracer was evaluated in female wild-type FVB mice (5 weeks old, Charles River). The animals were housed in accordance with European Ethics Committee guidelines. The animal studies were approved by the Animal Experimental Ethical Committee of Ghent University (ECD 15/69). Food and water was provided ad libitum. Animals were fasted overnight before the PET-scan.
Mice were anesthetized with 1.5 v:v % isoflurane in 100% O2 for the duration of the experiment. An intravenous polyethylene line was placed in the lateral tail vein. The animals were placed in the small animal PET/CT-scanner (FLEX Triumph II small animal PET/CT-scanner; PET field of view: 7.5 cm axial; 1.3 mm spatial resolution; TriFoil Imaging) on a heated bed. A CT-scan was acquired for anatomical correlation.
The interaction of rifampicin (Sigma Aldrich) and bosentan (Activate Scientific) on in vivo [^18F]FCA transport was examined. FVB-mice were divided into 3 different groups (n = 3 per group): rifampicin, bosentan, and a control DMSO vehicle treated group). Both drugs were administered in doses of 100 mg/kg, intra-peritoneal in DMSO:PBS 70:30 v:v (rifampicin) or DMSO (bosentan) 1 hour before the start of the PET-scan. An additional dose (25 mg/kg for rifampicin in DMSO:PBS 40:60 v:v, 50 mg/kg for bosentan in DMSO) was co-injected intravenously with the tracer.
For each scan, 10 MBq of [^18F]FCA was administered intravenously and a 1 hour dynamic scan was started. Immediately after the dynamic scan, 18 MBq [^18F]FDG was injected intravenously. After 20 minutes, a 20 minutes static scan was taken.
PET-data were obtained in list-mode and were iteratively reconstructed (50 iterations) in frames of 15 seconds for the first 10 minutes, followed by 50 frames of 1 minute. ROI’s were drawn manually over liver, gallbladder and intestines using PMod software. A ROI was drawn in the left ventricle on the static [^18F]FDG scan to obtain an image-derived arterial blood input curve. The uptake of [^18F]FCA in arterial blood, liver, gallbladder and intestines was expressed as a % injected dose (% ID) and normalized for the weight of a 20 gram mouse. Time-activity curves (TAC’s) were generated using these values.
AUC, maximum % ID, and time to peak values were determined for the TAC’s with Graphpad Prism v3.00. Differences between 2 groups were determined with the non-parametric Mann-Whitney U test. P-values ≤ 0.05 were considered significant.

BSEP = BSEP (Homo sapiens, UniProt O95342); assay: In vitro efflux competition assay with [^3H]TC in BSEP membrane vesicles
Experimental: (§1) The assay was performed in 96-well plates. […] The final volume in each well was 30 μL. The plates were incubated for 10 minutes at 37°C and uptake was halted by the addition of 150 μL ice-cold buffer solution. The contents of each well were transferred to a glass fiber filter plate (Multiscreen HTS plates; Merck Millipore) and washed 3 times with 200 μL of ice-cold buffer solution. Vesicles were lysed by incubation with 100 μL 0.1 M NaOH for 10 minutes at room temperature. An 80 μL aliquot of this solution was used for liquid scintillation counting. Data points were collected in triplicate. IC50-values were calculated with Graphpad Prism v3.00.

NTCP = target: T1, NTCP (Homo sapiens, UniProt Q14973); assay: In vitro uptake assay with [^3H]TC in CHO-NTCP cells
T1 sequence (Q14973 1-349): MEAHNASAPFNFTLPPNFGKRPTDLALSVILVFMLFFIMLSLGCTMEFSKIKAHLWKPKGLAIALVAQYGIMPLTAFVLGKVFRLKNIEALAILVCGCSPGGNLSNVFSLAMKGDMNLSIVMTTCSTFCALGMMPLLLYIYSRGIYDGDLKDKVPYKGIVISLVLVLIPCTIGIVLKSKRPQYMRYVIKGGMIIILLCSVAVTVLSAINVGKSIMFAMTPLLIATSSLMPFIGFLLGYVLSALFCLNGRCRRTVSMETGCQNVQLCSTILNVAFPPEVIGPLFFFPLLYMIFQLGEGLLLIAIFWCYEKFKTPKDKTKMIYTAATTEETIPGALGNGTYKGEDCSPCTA
Experimental: (§2) Transport of 3β-fluorocholic acid by NTCP, OATP1B1 and OATP1B3 was assessed using stable transfected cell lines. Chinese hamster ovary (CHO) cells, Human Embryonic Kidney (HEK), HEK293-OATP1B3 cells were purchased from Solvo Biotechnologies; CHO-NTCP and HEK293-OATP1B1 cells were a kind gift from the same company. CHO cells were cultured in Dulbecco’s modified Eagle’s medium (DMEM)/F12 with 10% fetal calf serum, 0.3 mM L-proline, 2 mM glutamine and penicilline/streptomycine (50 U/mL). HEK cells expressing OATP1B1, OATP1B3 and control cell lines were cultured in DMEM glutamax (high glucose/pyruvate) with 10% fetal calf serum, MEM non-essential amino acid supplement and penicilline/streptomycine (50 U/mL). All cell lines were cultured in a 37°C 5% CO2 environment.
(§3) Transport of FCA by the NTCP, OATP1B1 and OATP1B3 transporters was assessed by inhibition of the tritium labeled model substrates uptake.
Cells were seeded in 24-well plates at 400,000 cells per well. After 24 hours, the culture medium was removed and cells were washed twice with 1 mL 10 mM HEPES-Hank’s Balanced Salt Solution (HBSS; with Ca and Mg; 37°C pH 7.4) washing buffer. […] Of the dosing solution, 250 μL was added to the washed cells and incubation took place at 37°C for 15 minutes. The plates were cooled on ice and 1 mL 1% BSA ice-cold HBSS (with Ca and Mg) was added. Cells were washed twice with 2 mL ice-cold HBSS (with Ca and Mg) and were finally lysed with 250 μL 0.1 M NaOH. The plates were shaken for 15 minutes at 37°C. Of the lysate, 150 μL was used for liquid scintillation counting (TriCarb 2900 TR; Perkin Elmer) and 25 μL was subjected to a BCA assay (ThermoFisher Scientific) to determine protein content. Data points were collected in triplicate. IC50-values were calculated with Graphpad Prism v3.00 (Graphpad software).

OATP1B3 = target: T2, OATP1B3 (Homo sapiens, UniProt Q9NPD5); assay: In vitro uptake assay with [^3H]EbG in HEK-OATP1B3 cells
T2 sequence (Q9NPD5 1-702): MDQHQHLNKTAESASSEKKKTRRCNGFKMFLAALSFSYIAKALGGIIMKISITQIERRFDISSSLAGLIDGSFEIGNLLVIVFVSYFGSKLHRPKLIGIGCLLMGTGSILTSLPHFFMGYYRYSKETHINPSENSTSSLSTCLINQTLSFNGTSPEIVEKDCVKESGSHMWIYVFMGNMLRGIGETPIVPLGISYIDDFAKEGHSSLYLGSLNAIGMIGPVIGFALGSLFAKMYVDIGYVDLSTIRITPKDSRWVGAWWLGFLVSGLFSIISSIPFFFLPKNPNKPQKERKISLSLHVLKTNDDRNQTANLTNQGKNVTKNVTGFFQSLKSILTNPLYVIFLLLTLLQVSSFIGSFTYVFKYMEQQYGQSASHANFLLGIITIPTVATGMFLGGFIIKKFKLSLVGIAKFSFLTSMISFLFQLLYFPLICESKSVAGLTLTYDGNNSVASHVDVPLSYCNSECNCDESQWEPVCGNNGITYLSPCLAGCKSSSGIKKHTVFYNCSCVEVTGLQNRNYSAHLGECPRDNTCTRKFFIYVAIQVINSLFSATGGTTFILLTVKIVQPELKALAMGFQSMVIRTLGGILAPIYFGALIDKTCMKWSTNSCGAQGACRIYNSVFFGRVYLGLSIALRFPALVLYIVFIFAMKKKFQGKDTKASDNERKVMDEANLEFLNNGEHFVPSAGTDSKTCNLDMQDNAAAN
Experimental: as §2, §3
(§4) Cells were seeded in 24-well plates at 400,000 cells per well. […] The plates were cooled on ice and 1 mL 1% BSA ice-cold HBSS (with Ca and Mg) was added. Cells were washed twice with 2 mL ice-cold HBSS (with Ca and Mg) and were finally lysed with 250 μL 0.1 M NaOH. […] Of the lysate, 150 μL was used for liquid scintillation counting (TriCarb 2900 TR; Perkin Elmer) and 25 μL was subjected to a BCA assay (ThermoFisher Scientific) to determine protein content. Data points were collected in triplicate. IC50-values were calculated with Graphpad Prism v3.00 (Graphpad software).

OATP1B1 = target: T3, OATP1B1 (Homo sapiens, UniProt Q9Y6L6); assay: In vitro uptake assay with [^3H]EbG in HEK-OATP1B1 cells
T3 sequence (Q9Y6L6 1-691): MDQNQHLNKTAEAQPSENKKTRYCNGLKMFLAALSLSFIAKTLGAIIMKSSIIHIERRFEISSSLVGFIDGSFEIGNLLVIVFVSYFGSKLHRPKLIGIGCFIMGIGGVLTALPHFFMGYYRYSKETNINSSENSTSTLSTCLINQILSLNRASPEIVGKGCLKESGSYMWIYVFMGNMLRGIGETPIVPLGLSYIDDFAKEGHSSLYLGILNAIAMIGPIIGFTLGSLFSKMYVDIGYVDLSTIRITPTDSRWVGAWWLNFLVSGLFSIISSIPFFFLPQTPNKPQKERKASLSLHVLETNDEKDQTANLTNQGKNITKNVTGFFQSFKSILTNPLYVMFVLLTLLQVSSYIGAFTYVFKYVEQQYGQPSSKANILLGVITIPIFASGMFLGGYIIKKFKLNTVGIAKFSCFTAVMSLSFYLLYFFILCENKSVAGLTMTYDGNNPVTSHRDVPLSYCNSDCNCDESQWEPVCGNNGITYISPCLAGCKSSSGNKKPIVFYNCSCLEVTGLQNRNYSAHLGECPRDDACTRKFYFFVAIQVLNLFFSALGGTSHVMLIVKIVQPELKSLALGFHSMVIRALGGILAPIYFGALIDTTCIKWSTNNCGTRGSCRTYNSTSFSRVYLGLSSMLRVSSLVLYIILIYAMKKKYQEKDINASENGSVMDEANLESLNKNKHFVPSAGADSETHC
Experimental: as §2, §3, §4

MRP2 = MRP2 (Homo sapiens, UniProt Q92887); assay: In vitro efflux competition assay with [^3H]EbG in MRP2 membrane vesicles
Experimental: as §1

[2] = cited from earlier work
[3] = parameters: method as in PMID 27513813; settings: cited from earlier work
[4] = 15 minutes of incubation without added FCA

Sequence of MRP2 (Q92887 whole entry): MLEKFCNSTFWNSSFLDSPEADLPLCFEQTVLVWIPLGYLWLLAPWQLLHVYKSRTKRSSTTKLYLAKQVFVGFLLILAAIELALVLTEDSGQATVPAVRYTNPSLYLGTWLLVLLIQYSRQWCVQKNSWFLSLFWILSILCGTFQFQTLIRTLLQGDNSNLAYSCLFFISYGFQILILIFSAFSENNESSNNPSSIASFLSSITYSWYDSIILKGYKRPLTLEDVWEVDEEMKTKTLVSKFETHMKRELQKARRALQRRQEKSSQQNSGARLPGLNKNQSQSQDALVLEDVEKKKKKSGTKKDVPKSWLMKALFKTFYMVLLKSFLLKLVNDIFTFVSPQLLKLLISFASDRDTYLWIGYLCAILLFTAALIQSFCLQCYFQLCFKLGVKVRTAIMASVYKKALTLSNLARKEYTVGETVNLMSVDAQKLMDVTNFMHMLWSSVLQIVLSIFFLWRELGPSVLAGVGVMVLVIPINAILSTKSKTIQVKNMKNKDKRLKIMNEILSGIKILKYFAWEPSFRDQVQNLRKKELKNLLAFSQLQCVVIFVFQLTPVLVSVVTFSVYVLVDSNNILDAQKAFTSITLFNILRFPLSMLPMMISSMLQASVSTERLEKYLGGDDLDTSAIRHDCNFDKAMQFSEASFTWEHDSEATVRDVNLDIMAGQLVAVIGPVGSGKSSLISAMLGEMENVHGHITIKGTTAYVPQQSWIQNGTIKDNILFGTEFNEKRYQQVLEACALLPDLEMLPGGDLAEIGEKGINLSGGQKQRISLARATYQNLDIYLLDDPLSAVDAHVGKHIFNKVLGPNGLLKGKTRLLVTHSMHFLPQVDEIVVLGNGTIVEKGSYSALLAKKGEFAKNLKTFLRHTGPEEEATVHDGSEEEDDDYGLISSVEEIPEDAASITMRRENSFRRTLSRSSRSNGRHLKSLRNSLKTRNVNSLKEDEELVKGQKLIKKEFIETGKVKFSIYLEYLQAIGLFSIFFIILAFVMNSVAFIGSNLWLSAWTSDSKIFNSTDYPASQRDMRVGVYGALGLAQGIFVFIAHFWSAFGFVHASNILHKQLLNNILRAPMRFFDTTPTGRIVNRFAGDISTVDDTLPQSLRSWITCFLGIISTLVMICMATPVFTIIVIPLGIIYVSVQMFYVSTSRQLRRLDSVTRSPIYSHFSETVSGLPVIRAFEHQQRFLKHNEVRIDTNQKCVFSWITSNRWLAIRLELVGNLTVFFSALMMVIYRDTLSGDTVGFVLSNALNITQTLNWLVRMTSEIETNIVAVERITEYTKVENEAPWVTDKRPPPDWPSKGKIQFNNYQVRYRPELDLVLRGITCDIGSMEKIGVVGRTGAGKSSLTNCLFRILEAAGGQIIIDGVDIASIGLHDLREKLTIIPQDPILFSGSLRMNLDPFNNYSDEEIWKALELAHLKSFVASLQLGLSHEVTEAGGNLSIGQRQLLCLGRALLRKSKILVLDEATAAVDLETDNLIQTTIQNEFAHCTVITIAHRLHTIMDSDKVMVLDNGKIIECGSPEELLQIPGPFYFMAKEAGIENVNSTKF
Sequence of BSEP (O95342 whole entry): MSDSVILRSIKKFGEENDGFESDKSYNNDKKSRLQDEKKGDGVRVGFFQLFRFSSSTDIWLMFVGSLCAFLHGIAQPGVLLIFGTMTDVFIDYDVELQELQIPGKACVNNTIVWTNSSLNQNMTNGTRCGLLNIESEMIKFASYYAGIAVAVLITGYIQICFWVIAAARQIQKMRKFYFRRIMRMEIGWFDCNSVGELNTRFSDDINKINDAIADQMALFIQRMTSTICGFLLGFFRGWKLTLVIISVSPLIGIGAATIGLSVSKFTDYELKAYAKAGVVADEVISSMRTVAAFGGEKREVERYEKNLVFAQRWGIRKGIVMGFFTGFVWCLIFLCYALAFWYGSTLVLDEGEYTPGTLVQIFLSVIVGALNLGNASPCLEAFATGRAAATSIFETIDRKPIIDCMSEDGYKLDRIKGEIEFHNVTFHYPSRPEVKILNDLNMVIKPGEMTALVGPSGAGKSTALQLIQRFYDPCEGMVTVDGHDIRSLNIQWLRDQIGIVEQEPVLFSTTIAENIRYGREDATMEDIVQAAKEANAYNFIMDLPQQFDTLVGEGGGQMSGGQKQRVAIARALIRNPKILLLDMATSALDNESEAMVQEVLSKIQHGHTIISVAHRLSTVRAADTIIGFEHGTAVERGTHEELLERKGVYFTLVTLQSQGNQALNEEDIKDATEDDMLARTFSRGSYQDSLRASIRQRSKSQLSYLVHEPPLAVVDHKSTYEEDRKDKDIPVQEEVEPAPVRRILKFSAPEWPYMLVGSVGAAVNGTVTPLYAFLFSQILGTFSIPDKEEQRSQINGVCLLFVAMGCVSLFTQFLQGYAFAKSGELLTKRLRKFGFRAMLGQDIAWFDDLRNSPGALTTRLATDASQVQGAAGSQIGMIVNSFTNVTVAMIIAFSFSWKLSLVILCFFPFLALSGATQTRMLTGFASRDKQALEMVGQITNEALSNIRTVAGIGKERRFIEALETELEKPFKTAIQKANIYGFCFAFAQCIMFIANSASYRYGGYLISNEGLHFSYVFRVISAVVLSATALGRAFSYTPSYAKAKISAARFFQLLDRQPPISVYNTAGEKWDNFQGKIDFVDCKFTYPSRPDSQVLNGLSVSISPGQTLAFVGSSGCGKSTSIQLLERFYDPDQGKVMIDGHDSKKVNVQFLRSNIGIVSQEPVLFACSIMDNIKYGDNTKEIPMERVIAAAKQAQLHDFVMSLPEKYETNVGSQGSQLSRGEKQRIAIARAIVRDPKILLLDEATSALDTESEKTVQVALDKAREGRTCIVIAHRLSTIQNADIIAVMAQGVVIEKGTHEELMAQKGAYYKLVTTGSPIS

COc1ccccc1Oc1c(NS(=O)(=O)c2ccc(C(C)(C)C)cc2)nc(-c2ncccn2)nc1OCCO [Bosentan, bosentan, reference compound]
effect on hepatobiliary transport of [^18F]FCA [1]: significantly inhibited

C[C@H](CCC(=O)O)[C@H]1CC[C@H]2[C@@H]3[C@H](O)C[C@@H]4C[C@@H](F)CC[C@]4(C)[C@H]3C[C@H](O)[C@]12C [FCA, 3β-Fluoro-7α,12α-Dihydroxy-5β-Cholanic acid]
IC50 (BSEP): 253 ± 76 µM | IC50 (NTCP): 6.6 ± 0.8 µM | IC50 (OATP1B3): 25.2 ± 12.7 µM | IC50 (OATP1B1): 10.5 ± 1.1 µM | IC50 (MRP2): 577 ± 300 µM

CO[C@H]1/C=C/O[C@@]2(C)Oc3c(C)c(O)c4c(O)c(c(/C=N/N5CCN(C)CC5)c(O)c4c3C2=O)NC(=O)/C(C)=C\C=C\[C@H](C)[C@H](O)[C@@H](C)[C@@H](O)[C@@H](C)[C@H](OC(C)=O)[C@@H]1C [Rifampicin, rifampicin]
effect on ^99mTc mebrofenin canalicular efflux on the SPECT-scan ([2]; not told): complete block of canalicular efflux

C[C@]12CC[C@@H]3c4ccc(O)cc4CC[C@H]3[C@@H]1CC[C@@H]2O[C@@H]1O[C@H](C(=O)O)[C@@H](O)[C@H](O)[C@H]1O [[^3H]EbG, [^3H]estradiol-17β-glucuronide]
uptake in HEK-OATP1B3 (OATP1B3; [4]): 8.6 ± 1.3 pmol/mg protein | uptake in HEK-OATP1B3 (kinetic profile) (OATP1B3; S2 file, 1 µM, 15 minutes): 19.0 pmol/mg protein | uptake in HEK-OATP1B3 versus control (OATP1B3; S2 file, 15 minutes): 13 times | uptake in HEK-OATP1B1 (OATP1B1; [4]): 84.0 ± 7.7 pmol/mg protein | uptake in HEK-OATP1B1 (kinetic profile) (OATP1B1; S2 file, 1 µM, 15 minutes): 163.9 pmol/mg protein | uptake in HEK-OATP1B1 versus control (OATP1B1; S2 file, 15 minutes): 115 times | uptake in MRP2 vesicles (MRP2; 10 minutes of incubation): 18.5 ± 3.8 pmol/mg protein

C[C@H](CCC(=O)NCCS(=O)(=O)O)[C@H]1CC[C@H]2[C@@H]3[C@H](O)C[C@@H]4C[C@H](O)CC[C@]4(C)[C@H]3C[C@H](O)[C@]12C [[^3H]TC, [^3H]taurocholate]
uptake in CHO-NTCP cells (NTCP; [4]): 95.2 ± 6.0 pmol/mg protein | uptake in CHO-NTCP cells (kinetic profile) (NTCP; S2 file, 1 µM, 15 minutes of incubation): 135.5 pmol/mg protein | uptake in CHO-NTCP cells versus control (NTCP; S2 file, 15 minutes): 101 fold

Cc1cc(C)c(NC(=O)CN(CC(=O)[O-])CC(=O)[O-])c(C)c1Br.Cc1cc(C)c(NC(=O)CN(CC(=O)[O-])CC(=O)[O-])c(C)c1Br.[99Tc+4] [^99mTc-mebrofenin, ^99mTc Mebrofenin]
% ID in gallbladder and intestines ([2]; FVB-mice): 78.1 % ID | maximum % ID liver ([2]; FVB-mice): 51.8 % ID | time to reach maximum % ID in liver ([2]; FVB-mice): 2.2 min

[^99mTc]-DTPA-CA [^99mTc CA]
max % ID liver [3]: 25.7 % ID | maximal % ID in gallbladder and intestines [3]: 47.8 % ID | time to reach max % ID in liver [3]: 12.0 min

[^99mTc]-DTPA-CDCA [^99mTc CDCA]
max % ID liver [3]: 37.3 % ID | maximal % ID in gallbladder and intestines [3]: 62.2 % ID | time to reach max % ID in liver [3]: 12.7 min
